Measurements reported in patent publication US12699090B2 (priority 2019, dated 2026).
Entries after “also recorded” stand apart in the source; their conditions may differ.

System: PBMCs isolated from naturally M. bovis-infected cattle
Type: cell-based, cattle (Bos taurus taurus)

| Sequence | recognition of individual peptide (IFN-γ ELISPOT response, Z-scores) |
| --- | --- |
| AANKQKQELDEISTNIRQAGVQYSRADEEQQQALSSQMGF [compound 8] | far stronger response |
| AITHGPYCSQFNDTLNVYLT (artificial protein fragment) [compound 39, short Rv3615c peptide] | poor recognition could be compensated |
| AITHGPYCSQFNDTLNVYLTAHNALGSSLHTAGVDLAKSL (artificial protein fragment) [compound 10, long Rv3615c fragment] | poorly recognized |
| GQWRGAAGTAAQAAVVRFQEAANKQKQELDEISTNIRQAG [compound 7] | far stronger response |
| KQSLTKLAAAWGGSGS (artificial protein fragment) [peptide 17, short ESAT-6 peptide] | strong epitope |
| MAEMKTDAATLAQEAGNFERISGDLKTQIDQVESTAGSLQ [compound 5] | poorly recognized |
| MTENLTVQPERLGVLASHHDNAAVDASSGVEAAAGLGESV (artificial protein fragment) [compound 9, long Rv3615c fragment] | poorly recognized |
| NVTSIHSLLDEGKQSLTKLAAAWGGSGSEAYQGVQQKWDA [peptide 2] | poorly and infrequently recognized |
| QEAGNFERISGDLKTQ [peptide 25] | strongly recognized; also recorded: recognized promiscuously |
| SHHDNAAVDASSGVEAAAGL (artificial protein fragment) [compound 36, short Rv3615c peptide] | poor recognition could be compensated |
